Test results: ChEMBL document CHEMBL1201862, “PubChem BioAssay data set” (2004)
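Results reflect a 48-hour exposure of cells in 96-well plates to compound at five concentrations. GI50: concentration for 50% inhibition of growth.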 Activity calls are given as the source filed them. No stated cut-off is given here; in the data, active = GI50 up to about 1.1 µM and inactive = higher.

Legend:
Assay in all cases: inhibition of tumour cell growth, NCI panel, 48 h
[1] = tested on: CCRF-CEM
[2] = tested on: HCC 2998
[3] = tested on: MDA-MB-435
[4] = tested on: MOLT-4
[5] = tested on: T47D
[6] = tested on: MDA-MB-231
[7] = tested on: SF-295
[8] = tested on: EKVX
[9] = tested on: SN12C
[10] = tested on: HT-29
[11] = tested on: U-251
[12] = tested on: HL-60
[13] = tested on: HCT-116
[14] = tested on: OVCAR-5
[15] = tested on: M14
[16] = tested on: SR
[17] = tested on: IGROV-1
[18] = tested on: NCI-H23
[19] = tested on: NCI/ADR-RES
[20] = tested on: TK-10

Measured: GI50

O=c1[nH]nc(-c2ccccc2)n1/N=C\CC/C=N\n1c(-c2ccccc2)n[nH]c1=O
inactive: [1] > 10 µM | [2] 40.7 µM | [3] 22.7 µM | [4] 20.1 µM | [5] 30.8 µM | [6] 29.2 µM | [7] 47.3 µM | [8] 44.3 µM | [9] 20.3 µM | [10] 19.4 µM | [11] 40.6 µM | [12] 29.2 µM | [13] 24.2 µM | [14] 60 µM | [15] 20.6 µM | [16] 34 µM | [17] > 49.9 µM | [18] 14.3 µM | [19] 38.5 µM | [20] > 100 µM

CC(C)N1CN(c2ccccc2)C2(CCN(CCCC(=O)c3ccc(F)cc3)CC2)C1=O
inactive: [1] 1.83 µM | [2] 7.14 µM | [3] 11.1 µM | [4] 5.92 µM | [5] 6.07 µM | [6] 9.14 µM | [7] 10.8 µM | [8] 12.7 µM | [9] 4.68 µM | [10] 1.79 µM | [11] 26.7 µM | [12] 19.1 µM | [13] 2.04 µM | [14] 5.42 µM | [15] 15.3 µM | [16] 18.1 µM | [17] 3.85 µM | [18] 6.7 µM | [19] 5.55 µM | [20] 12.1 µM
